What was measured:
Campylobacter coli = assay: Antibacterial activity against Campylobacter coli by broth microdilution method in presence of sulfamethoxazole
Salmonella enteritidis = assay: Antibacterial activity against Salmonella enterica serovar Enteritidis by broth microdilution method in presence of sulfamethoxazolee
Aeromonas veronii = assay: Antibacterial activity against Aeromonas veronii by broth microdilution methods in presence of sulfamethoxazole
Salmonella paratyphi = assay: Antibacterial activity against Salmonella enterica serovar Paratyphi by broth microdilution method in presence of sulfamethoxazolee
Shigella dysenteriae = assay: Antibacterial activity against Shigella dysenteriae by broth microdilution methods in presence of sulfamethoxazole
[1] = Antibacterial activity against Salmonella enterica serovar Newport by broth microdilution method in presence of sulfamethoxazole
Vibrio sp. = assay: Antibacterial activity against Vibrio sp. by broth microdilution method in presence of sulfamethoxazole
[2] = test system: Yersinia pseudotuberculosis; assay: Antibacterial activity against Yersinia pseudotuberculosis by broth microdilution methods in presence of sulfamethoxazole
Aeromonas hydrophila = assay: Antibacterial activity against Aeromonas hydrophila by broth microdilution methods in presence of sulfamethoxazole
Aeromonas caviae = assay: Antibacterial activity against Aeromonas caviae by broth microdilution methods in presence of sulfamethoxazole
Yersinia enterocolitica = assay: Antibacterial activity against Yersinia enterocolitica by broth microdilution methods in presence of sulfamethoxazole
Shigella flexneri = assay: Antibacterial activity against Shigella flexneri by broth microdilution method in presence of sulfamethoxazole
Vibrio vulnificus = assay: Antibacterial activity against Vibrio vulnificus by broth microdilution method in presence of sulfamethoxazole
Vibrio fluvialis = assay: Antibacterial activity against Vibrio fluvialis by broth microdilution method in presence of sulfamethoxazole
Vibrio parahaemolyticus = assay: Antibacterial activity against Vibrio parahaemolyticus by broth microdilution methods in presence of sulfamethoxazole
[3] = Antibacterial activity against Salmonella enterica serovar Heidelberg by broth microdilution method in presence of sulfamethoxazole
Salmonella typhi = assay: Antibacterial activity against Salmonella enterica serovar Typhi by broth microdilution method in presence of sulfamethoxazolee
Aeromonas sobria = assay: Antibacterial activity against Aeromonas sobria by broth microdilution methods in presence of sulfamethoxazole
Vibrio alginolyticus = assay: Antibacterial activity against Vibrio alginolyticus by broth microdilution methods in presence of sulfamethoxazole
Plesiomonas shigelloides = assay: Antibacterial activity against Plesiomonas shigelloides by broth microdilution method in presence of sulfamethoxazole
Shigella sonnei = assay: Antibacterial activity against Shigella sonnei by broth microdilution method in presence of sulfamethoxazole
Campylobacter jejuni = assay: Antibacterial activity against Campylobacter jejuni by broth microdilution method in presence of sulfamethoxazole
Vibrio cholerae = assay: microbe, parasite or virus in culture
Salmonella typhimurium = assay: Antibacterial activity against Salmonella enterica serovar Typhimurium by broth microdilution method in presence of sulfamethoxazolee
Shigella boydii = assay: Antibacterial activity against Shigella boydii by broth microdilution methods in presence of sulfamethoxazole
[4] = Antibacterial activity against Salmonella enterica serovar Virchow by broth microdilution method in presence of sulfamethoxazole
Escherichia coli = assay: Antibacterial activity against Escherichia coli by broth microdilution methods in presence of sulfamethoxazolee

COc1cc(Cc2cnc(N)nc2N)cc(OC)c1OC [TRIMETHOPRIM]
MIC50 (Campylobacter coli): 2 µg/mL
MIC90 (Campylobacter coli): 8 µg/mL
MIC50 (Salmonella enteritidis): ≤ 0.5 µg/mL
MIC90 (Salmonella enteritidis): ≤ 0.5 µg/mL
MIC50 (Aeromonas veronii): ≤ 0.5 µg/mL
MIC90 (Aeromonas veronii): 8 µg/mL
MIC50 (Salmonella paratyphi): ≤ 0.5 µg/mL
MIC90 (Salmonella paratyphi): ≤ 0.5 µg/mL
MIC50 (Shigella dysenteriae): > 64 µg/mL
MIC90 (Shigella dysenteriae): > 64 µg/mL
MIC50 [1]: ≤ 0.5 µg/mL
MIC90 [1]: ≤ 0.5 µg/mL
MIC50 (Vibrio sp.): ≤ 0.5 µg/mL
MIC90 (Vibrio sp.): ≤ 0.5 µg/mL
MIC50 [2]: ≤ 0.5 µg/mL
MIC50 (Aeromonas hydrophila): ≤ 0.5 µg/mL
MIC90 (Aeromonas hydrophila): 8 µg/mL
MIC50 (Aeromonas caviae): ≤ 0.5 µg/mL
MIC90 (Aeromonas caviae): 8 µg/mL
MIC50 (Yersinia enterocolitica): ≤ 0.5 µg/mL
MIC50 (Shigella flexneri): > 64 µg/mL
MIC90 (Shigella flexneri): > 64 µg/mL
MIC50 (Vibrio vulnificus): ≤ 0.5 µg/mL
MIC90 (Vibrio vulnificus): ≤ 0.5 µg/mL
MIC50 (Vibrio fluvialis): ≤ 0.5 µg/mL
MIC90 (Vibrio fluvialis): ≤ 0.5 µg/mL
MIC50 (Vibrio parahaemolyticus): ≤ 0.5 µg/mL
MIC90 (Vibrio parahaemolyticus): ≤ 0.5 µg/mL
MIC50 [3]: ≤ 0.5 µg/mL
MIC90 [3]: ≤ 0.5 µg/mL
MIC50 (Salmonella typhi): ≤ 0.5 µg/mL
MIC90 (Salmonella typhi): ≤ 0.5 µg/mL
MIC50 (Aeromonas sobria): ≤ 0.5 µg/mL
MIC90 (Aeromonas sobria): 8 µg/mL
MIC50 (Vibrio alginolyticus): ≤ 0.5 µg/mL
MIC90 (Vibrio alginolyticus): ≤ 0.5 µg/mL
MIC (Plesiomonas shigelloides): ≤ 0.5 µg/mL
MIC50 (Plesiomonas shigelloides): ≤ 0.5 µg/mL
MIC50 (Shigella sonnei): > 64 µg/mL
MIC90 (Shigella sonnei): > 64 µg/mL
MIC50 (Campylobacter jejuni): 2 µg/mL
MIC90 (Campylobacter jejuni): 8 µg/mL
MIC50 (Vibrio cholerae): ≤ 0.5 µg/mL
MIC90 (Vibrio cholerae): ≤ 0.5 µg/mL
MIC50 (Salmonella typhimurium): ≤ 0.5 µg/mL
MIC90 (Salmonella typhimurium): ≤ 0.5 µg/mL
MIC50 (Shigella boydii): > 64 µg/mL
MIC90 (Shigella boydii): > 64 µg/mL
MIC50 [4]: ≤ 0.5 µg/mL
MIC90 [4]: ≤ 0.5 µg/mL
MIC50 (Escherichia coli): ≤ 0.5 µg/mL
MIC90 (Escherichia coli): > 64 µg/mL
